Laboratory results: ChEMBL document CHEMBL6127107, “Oleanolic acid derivatives against drug-resistant bacteria and fungi by multi-targets to avoid drug resistance” (Eur J Med Chem, 2024)
In brackets after ≈: the same amount, converted by molar mass.

Experiments:
Format in all cases: functional
[1] = tested on: Escherichia coli; experiment: Antimicrobial activity against Escherichia coli
[2] = tested on: Staphylococcus aureus; experiment: Antimicrobial activity against Staphylococcus aureus 31
[3] = tested on: Candida albicans; experiment: Antimicrobial activity against fluconazole-resistant Candida albicans
[4] = tested on: Staphylococcus aureus; experiment: Antimicrobial activity against Staphylococcus aureus 29
[5] = tested on: Staphylococcus aureus; experiment: Antimicrobial activity against methicillin-resistant Staphylococcus aureus 011
[6] = tested on: Staphylococcus aureus; experiment: Antimicrobial activity against Staphylococcus aureus 10
[7] = tested on: Staphylococcus aureus; experiment: Antimicrobial activity against methicillin-resistant Staphylococcus aureus 003
[8] = tested on: Pseudomonas aeruginosa; experiment: Antimicrobial activity against Pseudomonas aeruginosa
[9] = tested on: Enterococcus faecalis; experiment: Antimicrobial activity against vancomycin resistant Enterococcus faecalis ATCC 51299

SMILES	MIC [1]	MIC [2]	MIC [3]	MIC [4]	MIC [5]	MIC [6]	MIC [7]	MIC [8]	MIC [9]
CC1(C)CC[C@]2(C(=O)O)CC[C@]3(C)C(=CC[C@@H]4[C@@]5(C)CC[C@H](OC(=O)c6ccccc6)C(C)(C)[C@@H]5CC[C@]43C)[C@@H]2C1	> 64 µg/mL	> 64 µg/mL	> 64 µg/mL	> 64 µg/mL	> 64 µg/mL	> 64 µg/mL	> 64 µg/mL	> 64 µg/mL	> 64 µg/mL
C[C@H]1[C@H](C)CC[C@]2(C)CC[C@]3(C)C(=CC(=O)[C@@H]4[C@@]5(C)CC[C@@H](O)[C@](C)(C(=O)O)[C@@H]5CC[C@]43C)[C@H]12 [11-KETO BOSWELLIC ACID]	–	–	–	–	–	–	16 µg/mL (≈ 34 µM)	–	32 µg/mL (≈ 68 µM)
CCCCCOC(=O)[C@]12CCC(C)(C)C[C@H]1C1=CC[C@@H]3[C@@]4(C)CC[C@H](O)C(C)(C)[C@@H]4CC[C@@]3(C)[C@]1(C)CC2	> 64 µg/mL	> 64 µg/mL	> 64 µg/mL	> 64 µg/mL	> 64 µg/mL	> 64 µg/mL	> 64 µg/mL	> 64 µg/mL	> 64 µg/mL
CC(=O)O[C@H]1CC[C@]2(C)[C@H]3CC=C4[C@@H]5CC(C)(C)CC[C@]5(C(=O)NCc5ccc(F)cc5)CC[C@@]4(C)[C@]3(C)CC[C@H]2C1(C)C	> 64 µg/mL	> 64 µg/mL	> 64 µg/mL	> 64 µg/mL	> 64 µg/mL	> 64 µg/mL	> 64 µg/mL	> 64 µg/mL	> 64 µg/mL
CC1(C)CC[C@]2(C(=O)O)CC[C@]3(C)C(=CC[C@@H]4[C@@]5(C)CC[C@H](OCC(O)CNCc6ccoc6)C(C)(C)[C@@H]5CC[C@]43C)[C@@H]2C1 (stereo not given in full)	> 64 µg/mL	> 64 µg/mL	> 64 µg/mL	> 64 µg/mL	> 64 µg/mL	> 64 µg/mL	> 64 µg/mL	> 64 µg/mL	> 64 µg/mL
CC(=O)O[C@H]1CC[C@]2(C)[C@H]3CC=C4[C@@H]5CC(C)(C)CC[C@]5(C(=O)NCc5ccoc5)CC[C@@]4(C)[C@]3(C)CC[C@H]2C1(C)C	> 64 µg/mL	> 64 µg/mL	> 64 µg/mL	> 64 µg/mL	> 64 µg/mL	> 64 µg/mL	> 64 µg/mL	> 64 µg/mL	> 64 µg/mL
CCCCC(=O)O[C@H]1CC[C@]2(C)[C@H]3CC=C4[C@@H]5CC(C)(C)CC[C@]5(C(=O)O)CC[C@@]4(C)[C@]3(C)CC[C@H]2C1(C)C	> 64 µg/mL	> 64 µg/mL	> 64 µg/mL	> 64 µg/mL	> 64 µg/mL	> 64 µg/mL	> 64 µg/mL	> 64 µg/mL	> 64 µg/mL
CC1(C)CC[C@]2(C(=O)O[C@@H]3O[C@H](CO)[C@H](O)[C@H](O)[C@H]3O)CC[C@]3(C)C(=CC[C@@H]4[C@@]5(C)CC[C@H](O[C@@H]6O[C@H](C(=O)O)[C@@H](O)[C@H](O)[C@H]6O)C(C)(C)[C@@H]5CC[C@]43C)[C@@H]2C1	–	–	–	–	–	–	> 512 µg/mL	–	> 512 µg/mL
CCC(=O)O[C@H]1CC[C@]2(C)[C@H]3CC=C4[C@@H]5CC(C)(C)CC[C@]5(C(=O)O)CC[C@@]4(C)[C@]3(C)CC[C@H]2C1(C)C	> 64 µg/mL	> 64 µg/mL	> 64 µg/mL	> 64 µg/mL	> 64 µg/mL	> 64 µg/mL	> 64 µg/mL	> 64 µg/mL	> 64 µg/mL
COC(=O)[C@@]1(C)CC[C@]2(C(=O)OC3O[C@H](CO)[C@@H](O)[C@H](O)[C@H]3O)CC[C@]3(C)C(=CC[C@@H]4[C@@]5(C)CC[C@H](O[C@@H]6OC[C@@H](O)[C@H](O)[C@H]6O)[C@@](C)(CO)[C@@H]5CC[C@]43C)[C@@H]2C1 (stereo not given in full)	–	–	–	–	–	–	> 512 µg/mL	–	> 512 µg/mL
CN(C)CC(O)CO[C@H]1CC[C@]2(C)[C@H]3CC=C4[C@@H]5CC(C)(C)CC[C@]5(C(=O)O)CC[C@@]4(C)[C@]3(C)CC[C@H]2C1(C)C (stereo not given in full)	> 64 µg/mL	> 64 µg/mL	> 64 µg/mL	> 64 µg/mL	> 64 µg/mL	> 64 µg/mL	> 64 µg/mL	> 64 µg/mL	> 64 µg/mL
CC(=O)O[C@H]1CC[C@]2(C)[C@H]3CC=C4[C@@H]5CC(C)(C)CC[C@]5(C(=O)N5CCCCC5)CC[C@@]4(C)[C@]3(C)CC[C@H]2C1(C)C	> 64 µg/mL	> 64 µg/mL	> 64 µg/mL	> 64 µg/mL	> 64 µg/mL	> 64 µg/mL	> 64 µg/mL	> 64 µg/mL	> 64 µg/mL
CC1(C)C(OC(=O)c2ccccc2)CC[C@]2(C)C3=C([C@@H](O)C[C@@H]12)[C@@]1(C)CC[C@@]2(C)CC[C@@](C)(COC(=O)c4ccccc4)C[C@H]2[C@]1(C)CC3 (stereo not given in full)	–	–	–	–	–	–	> 512 µg/mL	–	> 512 µg/mL
CC1(C)[C@@H](O[C@@H]2O[C@H](C(=O)O)[C@@H](O)[C@H](O[C@@H]3O[C@H](C(=O)O)[C@@H](O)[C@H](O)[C@H]3O)[C@H]2O)CC[C@]2(C)[C@H]3C(=O)C=C4[C@@H]5C[C@@](C)(C(=O)O)CC[C@]5(C)CC[C@@]4(C)[C@]3(C)CC[C@@H]12 [GLYCYRRHIZINIC ACID]	–	–	–	–	–	–	> 512 µg/mL	–	> 512 µg/mL
CCCCCCCCCCCCC(=O)O[C@H]1CC[C@]2(C)[C@H]3CC=C4[C@@H]5CC(C)(C)CC[C@]5(C(=O)O)CC[C@@]4(C)[C@]3(C)CC[C@H]2C1(C)C	> 64 µg/mL	> 64 µg/mL	> 64 µg/mL	> 64 µg/mL	> 64 µg/mL	> 64 µg/mL	> 64 µg/mL	> 64 µg/mL	> 64 µg/mL
